system: HepG2; assay: Hepatoprotective activity in human HepG2 cells assessed as inhibition of APAP-induced cell damage at 10 uM by MTT assay relative to control; type: functional

Structure (SMILES) | inhibition at 10 µM [%]
C[C@@]12C[C@H](C3=CC(=O)O[C@@H]3O)OC(=O)C1=CC[C@]1(C)[C@H]2C[C@H]2COC(=O)[C@]21O | 4.9
COC(=O)[C@H]1O[C@H]2C[C@]1(C)C(CCCO[C@@H]1O[C@H](CO)[C@@H](O)[C@H](O)[C@H]1O)[C@]1(C)C[C@@H](c3ccoc3)OC(=O)[C@H]21 (stereo partly specified) | -24.9
C[C@@H](O)/C=C/C1[C@]2(C)CO[C@@]1(C)C[C@@H](O)C2 (stereo partly specified) | 19.2
C[C@@]12C[C@@H](c3ccoc3)OC(=O)C1=CC[C@]1(C)[C@H]2C[C@H]2COC(=O)[C@]21OC1O[C@H](CO)[C@@H](O)[C@H](O)[C@H]1O (stereo partly specified) | 3.8
C[C@@]12C[C@@H](c3ccoc3)OC(=O)C1=CC[C@]1(C)[C@H]2C[C@H]2COC(=O)[C@]21O | 6.4
C[C@@]12C[C@H](c3ccoc3)OC(=O)C1=CC[C@]1(C)[C@H]2C[C@H]2COC(=O)[C@]21O | 6.6
COc1cc([C@@H]2OC[C@@H]3C(=O)OC[C@@H]32)cc(OC)c1O | 17
COC(=O)c1cc(OC)c2c(c1-c1c(CO)cc(OC)c3c1OCO3)OCO2 [BICYCLOL] | 15.7
COc1cc(C[C@H]2CO[C@H](c3ccc(O)c(OC)c3)[C@H]2CO)ccc1O [LARICIRESINOL] | -4.3
O=C(/C=C/c1ccc(O)cc1)NCCc1ccc(O)cc1 [N-P-COUMAROYL TYRAMINE] | 39
COc1cc(/C=C/C(=O)NCCc2ccc(O)cc2)ccc1O [N-TRANS-FERULOYL TYRAMINE] | 3.5
